Measured values from PMC12888920, “MMP-9 regulates disulphide isomerase activity of TGM2 to enhance fusion glycoprotein-mediated syncytium formation of respiratory syncytial virus” (Protein & Cell, 2025).
One block for each compound: values may come before it.

How the values were obtained:
[1] = Cell viability assay (CellTiter-Glo) in HEp-2 cells; type: cell-based; conditions: human
Procedure: (§1) Figure 7. MMP-9-mediated TGM2 cleavage potentiates RSV–host interaction. (A) Cytotoxicity profiling. Dose-response curves of TGM2 inhibitors (ZED-1227, Cystamine, Bacitracin, E64FC26, ML359) in HEp-2 cells (72 h treatment). Viability was assessed by CellTiter-Glo assay. Data normalized to untreated controls. mean ± SD, n = 3. (B) Antiviral efficacy. Viral inhibition (FFA) in RSV A2-infected HEp-2 cells treated with TGM2 inhibitors at threefold dilution gradients: ZED-1227 (60–10 µmol/L), Cystamine (200–22.2 µmol/L), Bacitracin (500–50 µmol/L), E64FC26 (0.2–0.05 µmol/L), and ML359 (10–1.1 µmol/L). DMSO as vehicle control. mean ± SD, n = 3. (C) TGM2–F protein interaction. Co-IP analysis in HEK293T cells co-expressing TGM2 and RSV F (48 h). Immunoblots were probed with anti-TGM2, anti-F, or IgG control. Blots represent three independent experiments. (D) Binding kinetics. BLI quantification of TGM2–DS-Cav1 (RSV F prefusion conformation) interaction. The results represent three biological replicates. (E) Ternary complex formation. Co-IP of MMP-9-TGM2-F complex in HEK293T cells (48 h). GAPDH as loading control. Below the asterisk represents the objective band. Blots represent three independent experiments. (F) Impairing MMP-9/TGM2/RSV-F complex inhibits RSV infection. […] (G) Proteolytic enhancement. MMP-9-cleaved TGM2 (TGM2-44) enhances protein disulfide isomerase (PDI) activity was measured using reduced DS-Cav1. mean ± SD, n = 3. (H) Truncation functional analysis. Viral titers (FFA) in HEp-2 cells expressing MMP-9, TGM2, or cleavage fragments (TGM2-44/41) post RSV infection (MOI = 1, 72 hpi). mean ± SD, n = 3. (I) Syncytium rescue. Syncytia area quantification in TGM2 truncation-expressing cells (ImageJ software). mean ± SD, n = 3. (J) Subcellular redistribution. Confocal microscopy of HEp-2 cells co-expressing TGM2 truncations (HA/FLAG-tagged) and RSV F (72 hpi). Scale bar: 10 µm. Images represent three biological replicates. (K) F protein expression. Fluorescence intensity quantification of RSV F in (J) (ImageJ software). mean ± SD, n = 3. (L) Fusion competence assay. Syncytium formation in HEK293T cells co-expressing TGM2 truncations and RSV F/F-C37S/C69S mutants (48 h). Scale bar: 10 µm. Images represent three biological replicates. (M) Mutant validation. RSV F expression levels in (L) were quantified by ImageJ software. mean ± SD, n = 3. The results are representatively shown with three random experiments. The error bars indicate the mean ± SD of three technical replicates (n = 3). […]
(§2) (B-C) Cytotoxicity profiles in HEp-2 (B) and HBEC (C) cells. […] Viability was assessed using the CellTiter-Glo assay (G7570, Promega). […]
(§3) 95 Cell viability was evaluated using a CellTiter -Glo® Luminescent Cell Viability Assay 96 kit (G7571, Promega) according to the manufacturer’s instructions. […]

[2] = test system: RSV A2; assay: Viral inhibition (FFA) in RSV A2-infected HEp-2 cells treated with TGM2 inhibitors; type: cell-based, Respiratory syncytial virus; conditions: HEp-2, RSV A2; ZED-1227 60–10, Cystamine 200–22.2, Bacitracin 500–50, E64FC26 0.2–0.05, ML359 10–1.1 µmol/L
Procedure: Figure 7. MMP-9-mediated TGM2 cleavage potentiates RSV–host interaction. (A) Cytotoxicity profiling. Dose-response curves of TGM2 inhibitors (ZED-1227, Cystamine, Bacitracin, E64FC26, ML359) in HEp-2 cells (72 h treatment). Viability was assessed by CellTiter-Glo assay. Data normalized to untreated controls. mean ± SD, n = 3. (B) Antiviral efficacy. Viral inhibition (FFA) in RSV A2-infected HEp-2 cells treated with TGM2 inhibitors at threefold dilution gradients: ZED-1227 (60–10 µmol/L), Cystamine (200–22.2 µmol/L), Bacitracin (500–50 µmol/L), E64FC26 (0.2–0.05 µmol/L), and ML359 (10–1.1 µmol/L). DMSO as vehicle control. mean ± SD, n = 3. (C) TGM2–F protein interaction. Co-IP analysis in HEK293T cells co-expressing TGM2 and RSV F (48 h). Immunoblots were probed with anti-TGM2, anti-F, or IgG control. Blots represent three independent experiments. (D) Binding kinetics. BLI quantification of TGM2–DS-Cav1 (RSV F prefusion conformation) interaction. The results represent three biological replicates. (E) Ternary complex formation. Co-IP of MMP-9-TGM2-F complex in HEK293T cells (48 h). GAPDH as loading control. Below the asterisk represents the objective band. Blots represent three independent experiments. (F) Impairing MMP-9/TGM2/RSV-F complex inhibits RSV infection. […] (G) Proteolytic enhancement. MMP-9-cleaved TGM2 (TGM2-44) enhances protein disulfide isomerase (PDI) activity was measured using reduced DS-Cav1. mean ± SD, n = 3. (H) Truncation functional analysis. Viral titers (FFA) in HEp-2 cells expressing MMP-9, TGM2, or cleavage fragments (TGM2-44/41) post RSV infection (MOI = 1, 72 hpi). mean ± SD, n = 3. (I) Syncytium rescue. Syncytia area quantification in TGM2 truncation-expressing cells (ImageJ software). mean ± SD, n = 3. (J) Subcellular redistribution. Confocal microscopy of HEp-2 cells co-expressing TGM2 truncations (HA/FLAG-tagged) and RSV F (72 hpi). Scale bar: 10 µm. Images represent three biological replicates. (K) F protein expression. Fluorescence intensity quantification of RSV F in (J) (ImageJ software). mean ± SD, n = 3. (L) Fusion competence assay. Syncytium formation in HEK293T cells co-expressing TGM2 truncations and RSV F/F-C37S/C69S mutants (48 h). Scale bar: 10 µm. Images represent three biological replicates. (M) Mutant validation. RSV F expression levels in (L) were quantified by ImageJ software. mean ± SD, n = 3. The results are representatively shown with three random experiments. The error bars indicate the mean ± SD of three technical replicates (n = 3). Statistical analysis: one-way ANOVA with Dunnett’s post hoc test (B, F, G, H, I, K, M); unpaired two-tailed Student’s t-test (F, H, I, K, M). *P < 0.05, **P < 0.01, ***P < 0.001; ns, not significant.

[3] = test system: RSV A2; assay: Antiviral activity (FFA) against RSV A2 in HEp-2 cells; type: cell-based; conditions: human respiratory syncytial virus
Text: (§4) Figure 1. Antiviral activity of metalloproteinase inhibitors against RSV in vitro. (A) Experimental workflow for RSV A2 infection and compound treatment. (B) High-throughput screening of TargetMol L1100 library (246 host protease inhibitors targeting 10 pathways: MMPs, caspases, proteasomes, apoptosis regulators, cysteine proteases, gamma-secretase, autophagy modulators, serine proteases, DPP-4, and beta-secretase) using concentration gradients (1, 5, 10 µmol/L). HEp-2 cells were pretreated with compounds for 1 hour prior to RSV A2 infection (MOI = 0.1). Plaque formation was quantified at 72 hours post-infection (hpi) and normalized to DMSO controls. […] (G) Target overlap analysis of four MMP-9-targeting inhibitors. (H) Viral titers in supernatants of HEp-2 cells transfected with MMP-specific siRNAs (24 h) followed by RSV A2 infection (MOI = 1, 72 h). mean ± SD, n = 3. The results are representatively shown with three random experiments. The error bars indicate the mean ± SD of three technical replicates (n = 3). Statistical significance was determined by one-way ANOVA with Dunnett’s post hoc test: *P < 0.05, ***P < 0.001; ns, not significant. […]
(§5) 110 overtly cytotoxic) underwent dose -response validation (0.00004 –10 μM) to generate
(§6) 111 EC50 curves (GraphPad Prism 8.0) .
(§7) 112 Evaluation of in vitro antiviral activity
(§8) 113 Compound inhibitor treatments: HEp-2 cells (1.3×10⁴/well) or HBEC (1.8×10⁴/well)
(§9) 114 were pretreated with test compounds for 1 h before RSV A2/B18537 infection
(§10) 115 (MOI=0.1 or 0.3). Viral inhibition was quantified at 72 hpi via FFA. Fixed cells (4%
(§11) 116 PFA) were permeabilized (0.3% Triton X-100), stained with anti-RSV-FITC
(§12) 118 Fluorescent foci were normalized to nuclear counts (ImageJ software) for EC 50
(§13) 119 determination via four-parameter logistic regression (GraphPad Prism 8.0). Data
(§14) 120 represent triplicate experiments. […]

[4] = test system: RSV B18537; assay: Antiviral activity (FFA) against RSV B18537 in HEp-2 cells; type: cell-based; conditions: human respiratory syncytial virus
Text: as §4
(§15) 109 111813, MCE) and 0.1% DMSO vehicle. Primary hits (>50% CPE reduction + not
as §5, §6, §7, §8, §9, §10, §11, §12, §13, §14

[5] = test system: RSV A2; assay: Antiviral activity (FFA) against RSV A2 in primary human bronchial epithelial cells (HBEC); type: cell-based; conditions: human respiratory syncytial virus, Epithelial cell
Text: as §4, §7, §8, §9, §10, §11, §12, §13, §14

[6] = test system: RSV B18537; assay: Antiviral activity (FFA) against RSV B18537 in HBEC; type: cell-based; conditions: human respiratory syncytial virus
Text: as §4, §7, §8, §9, §10, §11, §12, §13, §14

[7] = test system: RSV A2; assay: High-throughput antiviral screening of protease inhibitor library against RSV A2 in HEp-2 cells; type: cell-based, Respiratory syncytial virus; conditions: RSV A2, MOI = 0.1, 1, 5, 10 µmol/L, 72 hpi
Text: Figure 1. Antiviral activity of metalloproteinase inhibitors against RSV in vitro. (A) Experimental workflow for RSV A2 infection and compound treatment. (B) High-throughput screening of TargetMol L1100 library (246 host protease inhibitors targeting 10 pathways: MMPs, caspases, proteasomes, apoptosis regulators, cysteine proteases, gamma-secretase, autophagy modulators, serine proteases, DPP-4, and beta-secretase) using concentration gradients (1, 5, 10 µmol/L). HEp-2 cells were pretreated with compounds for 1 hour prior to RSV A2 infection (MOI = 0.1). Plaque formation was quantified at 72 hours post-infection (hpi) and normalized to DMSO controls. […] (G) Target overlap analysis of four MMP-9-targeting inhibitors. (H) Viral titers in supernatants of HEp-2 cells transfected with MMP-specific siRNAs (24 h) followed by RSV A2 infection (MOI = 1, 72 h). mean ± SD, n = 3. The results are representatively shown with three random experiments. The error bars indicate the mean ± SD of three technical replicates (n = 3). Statistical significance was determined by one-way ANOVA with Dunnett’s post hoc test: *P < 0.05, ***P < 0.001; ns, not significant.
104 High-throughput antiviral screening
105 The L1100 protease inhibitor library (246 compounds; L1100, TargetMol) was
106 screened against RSV A2 in HEp -2 cells. Compounds (10 mM DMSO stocks) were
107 robotically dispensed 1 h pre -infection at final concentrations of 1, 5, 10 μM.
108 Infection rates (72 hpi) were normalized to PC786 (1 μM; positive control; HY -
as §15, §5, §6, §7, §8, §9, §10, §11, §12, §13, §14

[8] = test system: HEp-2 cells; assay: Cell viability assay (CellTiter-Glo) in HEp-2 cells; type: cell-based
Procedure: as §1, §2, §3

SMILES: NCCSSCCN [Cystamine]
CC50 at 72 h [1]: 387000 nM | inhibition of RSV replication (antiviral efficacy) [2]: did not inhibit RSV replication

EC50 ([3]; HEp-2, RSV A2, MOI = 0.1, 72 hpi, read-out: EC50): 846 nM | EC50 ([4]; HEp-2, RSV B18537, MOI = 0.1, 72 hpi, read-out: EC50): 727 nM | EC50 ([5]; HBEC, RSV A2, MOI = 0.3, 72 hpi, read-out: EC50): 1300 nM | EC50 ([6]; HBEC, RSV B18537, MOI = 0.3, 72 hpi, read-out: EC50): 811 nM
SMILES: C[C@H]1c2cccc(O)c2C(=O)C2=C(O)[C@]3(O)C(=O)C(C(N)=O)=C(O)[C@@H](N(C)C)[C@@H]3[C@@H](O)[C@@H]21 [Doxycycline]
inhibition of RSV infection in HEp-2 cells [7]: significant dose-dependent inhibition

SMILES: CCCCCCCC/C=C1\C=C(C(F)(F)F)c2cc(O)c(O)cc21 [E64FC26]
CC50 [8]: 800 nM | inhibition of RSV replication (antiviral efficacy) [2]: strong antiviral efficacy

SMILES: CC(C)=CCc1c(O)c(CC=C(C)C)c2oc3c(O)ccc(O)c3c(=O)c2c1O [Gartanin]
EC50 ([3]; HEp-2): 726 nM | EC50 ([4]; HEp-2): 738 nM | EC50 [5]: 625 nM | EC50 [6]: 733 nM | inhibition of RSV infection in HEp-2 cells [7]: significant dose-dependent inhibition
